In patent US20260022122A1 (Checkmate Therapeutics Inc., priority 2022, published 2026):

Key:
[1] = biological target: NamPT (Homo sapiens (Human), UniProt P43490); assay: Measurement of NamPT inhibitory ability IC50 (NamPT colorimetric assay kit, Abcam ab221819); format: biochemical; conditions: NamPT recombinant protein, WST-1 absorbance at 450 nm; class key in μM
Experimental: To test the effect of the compound prepared in each Example on the substrate decomposition rate (Vmax/min) mediated by NamPT enzyme, IC50 was calculated. In this experiment, the NamPT colorimetric assay kit (ab221819) produced by Abcam was used, and Graph prism software was used for IC50 calculation. PRPP, ATP, NMNAT1, NamPT recombinant proteins, and various concentrations of the compound of each Example (half-log step dilution from 100 μM) were added to nicotinamide to synthesize nicotinamide adenine dinucleotide (NAD) from the nicotinamide, and a total of 60 μL of the reaction solution was reacted at room temperature for 1 hour. WST-1 formazan converted by NAD generated by adding WST-1 was measured. The result of the reaction was obtained by the following formula by measuring absorbance using EnVision2105 (PerkinElmer) at 450 nm for 60 minutes at 2-minute intervals.
In Mathematical Formula 1, T1 and T2 are arbitrary times, and A1 and A2 represent the absorbance measured at T1 and T2 at 450 nm, respectively.
The results of measuring the NamPT inhibition activity of the compound of each Example obtained through the above experiment are shown in Table 1 in the unit of IC50 (nM), and the result values are expressed as follows.

[2] = tested on: NAPRT negative lung cancer cell lines (H322, H661, H1155); assay: Proliferation inhibition on NAPRT negative lung cancer cell lines (CellTiter-Glo); format: cell-based; conditions: 72 hours
Experimental: (§1) A compound showing a low IC50 value was selected from the compounds of the above Examples and treated an NAPRT positive or negative lung cancer cell line with various concentrations, and then the change in cell viability for each cell line was measured. The results are presented in a graph (a few materials known as NamPT inhibitors were used as controls). A total of 9 cancer cells lines (three NAPRT negative cell lines: H322, H661, and H1155; and six NAPRT positive cell lines: H1993, H2122, H2030, H1975, H1299, and HBEC30) were used. 5% fetal bovine serum (Gibco, US) and 1% penicillin/streptomycin (Gibco) were added to a medium, and the cells were cultured in a 37° C. constant temperature incubator containing 5% CO2. For compound treatment, each type of cells were seeded at 3×10^3 cells/well in a 96-well plate (Corning) and then incubated in a 37° C. constant temperature incubator containing 5% CO2 for 18 hours. […] Afterwards, the cells were cultured in an incubator containing 5% CO2 at 37° C. for 72 hours. To confirm the effect of inhibiting the proliferation of cancer cells, a CellTiter-Glo Luminescent Cell Viability Assay (Promega) was used. After treating the cells with 10 μL of CellTiter-Glo luciferase reagent and leaving them for 15 minutes at room temperature, the luminescence of each well was measured using EnVision2105 (PerkinElmer). The change in cell viability by the compound diluted at the concentration of each step was converted into a relative % value for the amount of luminescence shown by DMSO treatment. EC50 is expressed as the concentration of each compound that induces 50% of the maximum luminescence level.
(§2) The results of measuring the proliferation inhibition ability of the compound of each Example on nine types of lung cancer cell lines, obtained through the above experiment, are shown in Table 2 in the unit of EC50 (μM). The resulting values are expressed as follows.

[3] = tested on: NAPRT positive cell lines (H1993, H2122, H2030, H1975, H1299, HBEC30); assay: Proliferation inhibition on NAPRT positive lung cancer cell lines (CellTiter-Glo); format: cell-based; conditions: 72 hours
Experimental: as §1, §2

Chain of NamPT (P43490 whole entry): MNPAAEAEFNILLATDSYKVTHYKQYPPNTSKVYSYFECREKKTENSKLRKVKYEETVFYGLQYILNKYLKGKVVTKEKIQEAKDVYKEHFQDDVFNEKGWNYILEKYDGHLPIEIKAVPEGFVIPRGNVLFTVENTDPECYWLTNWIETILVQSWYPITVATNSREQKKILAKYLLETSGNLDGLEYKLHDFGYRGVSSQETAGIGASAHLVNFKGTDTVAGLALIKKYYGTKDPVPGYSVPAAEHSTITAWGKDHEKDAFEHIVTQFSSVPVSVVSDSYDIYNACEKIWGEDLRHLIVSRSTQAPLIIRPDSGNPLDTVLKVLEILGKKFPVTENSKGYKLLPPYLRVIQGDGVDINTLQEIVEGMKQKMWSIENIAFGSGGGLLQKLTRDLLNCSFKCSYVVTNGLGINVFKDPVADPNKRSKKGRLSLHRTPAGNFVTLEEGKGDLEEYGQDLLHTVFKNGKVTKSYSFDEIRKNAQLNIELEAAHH

Compound | IC50 [1] [µM] | EC50 [2] [µM] | EC50 [3] [µM]
O=C(NCc1ccc(-c2nc3cc(S(=O)(=O)c4ccccc4)ccc3o2)cc1)c1cnc2nccn2c1 [Example 38, N-[[4-[5-(benzenesulfonyl)-1,3-benzoxazol-2-yl]phenyl]methy]imidazo[1,2-a]pyrimidin-6-carboxamide] | < 0.05 | 0.051 to 0.1 | > 101
O=C(NCc1ccc(-c2nc3ccc(C(F)(F)F)cc3o2)cc1)c1cnc2nccn2c1 [Example 19, N-[[4-[6-(trifluoromethyl)-1,3-benzoxazol-2-yl]phenyl]methyl]imidazo[1,2-a]pyrimidin-6-carboxamide] | < 0.05 | 0.051 to 0.1 | > 101
CCNC(=O)c1ccc2oc(-c3ccc(CNC(=O)c4cnc5nccn5c4)cc3)nc2c1 [Example 31, N-ethyl-2-[4-[(imidazo[1,2-a]pyrimidin-6-carbonxylamino)methyl]phenyl]-1,3-benzoxazol-5-carboxamide] | < 0.05 | < 0.05 | > 101
O=C(NCc1ccc(-c2nc3ccc(F)cc3o2)cc1)c1cnc2nccn2c1 [Example 17, N-[[4-(6-fluoro-1,3-benzoxazol-2-yl)phenyl]methyl]imidazo[1,2-a]pyrimidin-6-carboxamide] | 0.051 to 0.1 | 0.051 to 0.1 | > 101
CS(=O)(=O)c1ccc2oc(-c3ccc(CNC(=O)c4cnc5nccn5c4)cc3)nc2c1 [Example 9, N-[[4-(5-methylsulfonyl-1,3-benzoxazol-2-yl)phenyl]methyl]imidazo[1,2-a]pyrimidin-6-carboxamide] | < 0.05 | < 0.05 | > 101
COc1ccc2nc(-c3ccc(CNC(=O)c4cnc5nccn5c4)cc3)oc2c1 [Example 22, N-[[4-(6-methoxy-1,3-benzoxazol-2-yl)phenyl]methyl]imidazo[1,2-a]pyrimidin-6-carboxamide] | < 0.05 | 0.051 to 0.1 | > 101
O=C(NCc1ccc(-c2nc3cc(C(=O)N4CCC4)ccc3o2)cc1)c1cnc2nccn2c1 [Example 33, N-[[4-[5-(azetidin-1-carbonyl)-1,3-benzoxazol-2-yl]phenyl]methyl]imidazo[1,2-a]pyrimidin-6-carboxamide] | < 0.05 | < 0.05 | > 101
O=C(NCc1ccc(-c2nc3ccccc3o2)cc1)c1cnc2nccn2c1 [Example 2, N-[[4-(1,3-benzoxazol-2-yl)phenyl]methyl]imidazo[1,2-a]pyrimidin-6-carboxamide] | 0.051 to 0.1 | < 0.05 | > 101
CC(C)c1ccc2nc(-c3ccc(CNC(=O)c4cnc5nccn5c4)cc3)oc2c1 [Example 3] |  | < 0.05 | > 101
CCc1ccc2nc(-c3ccc(CNC(=O)c4cnc5nccn5c4)cc3)oc2c1 [Example 45, N-[[4-(6-ethyl-1,3-benzoxazol-2-yl)phenyl]methyl]imidazo[1,2-a]pyrimidin-6-carboxamide] | < 0.05 |  | 
O=C(NCc1ccc(-c2nc3cc(-c4cccnc4)ccc3o2)cc1)c1cnc2nccn2c1 [Example 27, N-[[4-[5-(3-pyridyl)-1,3-benzoxazol-2-yl]phenyl]methyl]imidazo[1,2-a]pyrimidin-6-carboxamide] | 0.051 to 0.1 |  | 
Cc1cccc2oc(-c3ccc(CNC(=O)c4cnc5nccn5c4)cc3)nc12 [Example 20, N-[[4-(4-methyl-1,3-benzoxazol-2-yl)phenyl]methyl]imidazo[1,2-a]pyrimidin-6-carboxamide] | 0.11 to 1 |  | 
Cc1ccc2nc(-c3ccc(CNC(=O)c4cnc5nccn5c4)c(F)c3)oc2c1 [Example 35, N-[[2-fluoro-4-(6-methyl-1,3-benzoxazol-2-yl)phenyl]methyl]imidazo[1,2-a]pyrimidin-6-carboxamide] | < 0.05 |  | 
Cc1ccc2nc(-c3ccc(CNC(=O)c4cnc5nccn5c4)cc3)oc2c1 [Example 1, N-[[4-(6-methyl-1,3-benzoxazol-2-yl)phenyl]methyl]imidazo[1,2-a]pyrimidin-6-carboxamide] | 0.051 to 0.1 |  | 
O=C(NCc1ccc(-c2nc3cc(Cl)ccc3s2)cc1)c1cnc2nccn2c1 [Example 49, N-[[4-(5-chloro-1,3-benzothiazol-2-yl)phenyl]methyl]imidazo[1,2-a]pyrimidin-6-carboxamide] | < 0.05 |  | 
COc1ccc2sc(-c3ccc(CNC(=O)c4cnc5nccn5c4)cc3)nc2c1 [Example 51, N-[[4-(5-methoxy-1,3-benzothiazol-2-yl)phenyl]methyl]imidazo[1,2-a]pyrimidin-6-carboxamide] | < 0.05 |  | 
CN(C)C(=O)c1ccc2oc(-c3ccc(CNC(=O)c4cnc5nccn5c4)cc3)nc2c1 [Example 32, 2-[4-[(imidazo[1,2-a]pyrimidin-6-carbonylamino)methyl]phenyl]-N,N-dimethyl-1,3-benzoxazol-5-carboxamide] | < 0.05 | < 0.05 | 10 to 100
O=C(NCc1ccc(-c2nc3cc(C(=O)N4CCCC4)ccc3o2)cc1)c1cnc2nccn2c1 [Example 34, N-[[4-[5-(pyrrolidine-1-carbonyl)-1,3-benzoxazol-2-yl]phenyl]methyl]imidazo[1,2-a]pyrimidin-6-carboxamide] | < 0.05 | < 0.05 | 10 to 100
Nc1ccc2nc(-c3ccc(CNC(=O)c4cnc5nccn5c4)cc3)oc2c1 [Example 26, N-[[4-(6-amino-1,3-benzoxazol-2-yl)phenyl]methyl]imidazo[1,2-a]pyrimidin-6-carboxamide] | 0.051 to 0.1 |  | 
CCS(=O)(=O)c1ccc2nc(-c3ccc(CNC(=O)c4cnc5nccn5c4)cc3)oc2c1 [Example 14, N-[[4-(6-ethylsulfonyl-1,3-benzoxazol-2-yl)phenyl]methyl]imidazo[1,2-a]pyrimidin-6-carboxamide] | < 0.05 |  | 
Cc1ccc2oc(-c3ccc(CNC(=O)c4cnc5nccn5c4)cc3)nc2c1 [Example 6, N-[[4-(5-methyl-1,3-benzoxazol-2-yl)phenyl]methyl]imidazo[1,2-a]pyrimidin-6-carboxamide] | < 0.05 | < 0.05 | > 101
